Data set [1] is described as follows: In vitro release of stem cell recruitment factor (SP) and VP from hydrogels. The class given is physicochemical. The following applies: physiological saline, 37° C., 100 rpm, 28 days; CHHA+SP and CHHA-VP+SP hydrogels. The procedure:
First, an HA+VP solution was prepared by simply mixing VP with the HA solution prepared in Example 3 at a concentration of 320 μg/mL, and SP, which is a stem cell recruitment factor, was mixed with each of the HA solution and HA-VP solution at a concentration of 2 μg/mL to prepare an HA+SP solution and HA−VP+SP solution, respectively.
Next, 100 μL of the CH solution and 100 μL of the HA+VP solution were mixed in a vial to prepare 200 μL of a CHHA+VP hydrogel, and 100 μL of the CH solution and 100 μL of the HA-VP solution were mixed in a vial to prepare 200 μL of a CHHA-VP hydrogel.
In addition, 100 μL of the CH solution and 100 μL of HA+SP solution were mixed in a vial to prepare 200 μL of a CHHA+SP hydrogel, and 100 μL of the CH solution and 100 μL of the HA-VP+SP solution were mixed in a vial to prepare 200 μL of a CHHA-VP+SP hydrogel.
3 mL of a physiological saline was placed in each vial and stored in an incubator at 100 rpm and 37° C., and after taking 1 mL of the physiological saline from the vial at a predetermined time, 1 mL of a new physiological saline was added to the vial, and it was carried it out for 28 days to conduct a release experiment.

For data set [2], the system named is human-derived mesenchymal stem cells (hMSCs). In words: SP's ability to recruit stem cells (trans well migration). The class given is cell-based. The procedure:
First, human-derived mesenchymal stem cells (hMSCs) were labeled with PKH 26 dye (Sigma, USA) and then dispensed in the upper chamber (8.0 μm pore size) of a 24-well trans well plate (SPL, Korea) to be 5×10^4 cells. After culturing in the upper chamber for 48 hours using serum-free DMEM (Dubelco's modified eagle medium, Gibco, USA) medium, DMEM containing 1 μg/mL SP and 1% FBS (fetal bovine serum, Gibco, USA) was added to the bottom well, and the medium was replaced every 3 days, and the hMSCs that migrated to the bottom well were observed using a fluorescence microscope (Olympus, Japan). As a control group, DMEM (including 1% FBS) without SP was added to the bottom well and observed.

The mark [3] stands for this setting: 1 μg/mL SP in bottom well, DMEM with 1% FBS.

Take Substance P [SP]: the “release of SP from hydrogel” value in data set [1] was “release of SP occurred regardless of the chemical introduction of VP”. Further, in data set [2] (setting [3]), the “Migration rate of hMSC” value is listed as 1.9 × 10^3 cells/day and the Rate constant is -0.49 day⁻¹. Further, the “cells migrated to the lower side” value in data set [2] (SP present compared with SP absent) was “more cells migrated to the lower side”. In data set [2] (SP relative to Cont (no SP)), this substance returned a Relative migration rate of 1.7.

Source of the values: patent US20220409775A1, “INJECTABLE HYDROGEL COMPOSITION HAVING ENDOGENOUS PROGENITOR OR STEM CELL RECRUITMENT AND INDUCTION OF VASCULAR DIFFERENTIATION OF RECRUITED CELLS” (Ajou University Industry-Academic Cooperation Foundation, priority 2019, published 2022).
